Like-named read-outs stand apart in the source and are kept apart here.

The results in this text go back to patent US8524917B2, “6-substituted indole-3-carboxylic acid amide compounds having sphingosine-1-phosphate (S1P) receptor antagonist biological activity” (Allergan, Inc., priority 2007, dated 2013).

In this test the target is human S1P3 receptor (Homo sapiens (Human), UniProt Q99500). The test is described as follows: Activation or block of activation of human S1P3 receptor, Ca+2 FLIPR assay. Format: cell-based. As to conditions: for IC50: read-out: S1P3 IC50. The method in brief:
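T24 cells stably expressing human S1P3, grown in charcoal-treated FBS, dye-loaded and read on FLIPR for calcium after ligand addition in HBSS/20 mM HEPES (1 s readings for 75 s, then every 10 s for 2.5 min). Agonist or antagonist mode; S1P positive control in 4 mg/ml fatty-acid-free BSA. IC50 by Levenberg–Marquardt regression.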

Where [1] appears, read: T24 cells stably expressing the human S1P3 receptor, FLIPR Ca+2 response, 0.61 nM to 10,000 nM.
The mark [2] stands for this setting: T24 cells stably expressing the human S1P3 receptor, value in brackets.

Chain of human S1P3 receptor (Q99500 whole entry): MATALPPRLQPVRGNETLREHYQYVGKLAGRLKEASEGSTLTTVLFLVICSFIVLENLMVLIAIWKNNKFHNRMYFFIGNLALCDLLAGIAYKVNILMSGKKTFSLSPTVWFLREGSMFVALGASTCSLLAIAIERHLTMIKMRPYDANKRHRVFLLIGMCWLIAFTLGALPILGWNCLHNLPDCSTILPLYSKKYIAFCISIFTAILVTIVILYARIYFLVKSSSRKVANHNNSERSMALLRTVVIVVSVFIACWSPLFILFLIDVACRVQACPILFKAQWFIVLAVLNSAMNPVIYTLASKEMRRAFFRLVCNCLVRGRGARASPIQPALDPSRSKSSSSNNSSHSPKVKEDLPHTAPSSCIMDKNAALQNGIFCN

In the case of `CC(=O)c1c(C(=O)NCc2ccc(F)c(F)c2)c2ccc(OC(C)C)cc2n1Cc1ccccn1` [Compound 109, 2-Acetyl-N-(3,4-difluorobenzyl)-6-isopropoxy-1-(pyridin-2-ylmethyl)-1H-indole-3-carboxamide], under setting [1], the IC50 (commonly the concentration needed to halve the response being measured) is 21 nM. Also, under setting [2], the “S1P3 (% inh)” value is listed as 99%.

Regarding `CC(C)c1c(C(=O)NCc2ccc(F)c(F)c2)c2ccc([N+](=O)[O-])cc2n1Cc1ccccc1` [Compound 124, 1-Benzyl-N-(3,4-difluorobenzyl)-2-isopropyl-6-nitro-1H-indole-3-carboxamide], the “S1P3 (% inh)” value is on record as 242 nM (90) % and the IC50 was 242 nM.

For the molecule `CC(C)c1c(C(=O)NCc2ccc(F)c(F)c2)c2ccc(N)cc2n1Cc1ccccc1` [Compound 125, 6-Amino-1-benzyl-N-(3,4-difluorobenzyl)-2-isopropyl-1H-indole-3-carboxamide], the IC50 under setting [1] amounted to 1700 nM. For the same molecule, the “S1P3 (% inh)” value under setting [2] is 90%.

As for `CC(C)c1c(C(=O)NCc2ccc(F)c(F)c2)c2ccc(NC3CCOC3)cc2n1Cc1ccccc1` (centres unmarked) [Compound 126, 1-Benzyl-N-(3,4-difluorobenzyl)-2-isopropyl-6-(tetrahydrofuran-3-ylamino)-1H-indole-3-carboxamide], the IC50 under setting [1] is 177 nM. The “S1P3 (% inh)” value under setting [2] was 100%.

As for `CC(C)C(=O)Nc1ccc2c(C(=O)NCc3ccc(F)c(F)c3)c(C(C)C)n(Cc3ccccc3)c2c1` [Compound 127, 1-Benzyl-N-(3,4-difluorobenzyl)-6-isobutyramido-2-isopropyl-1H-indole-3-carboxamide], the IC50 under setting [1] was 890 nM. The “S1P3 (% inh)” value under setting [2] is recorded as 97%.

In the case of `CC(C)c1c(C(=O)NCc2ccc(F)c(F)c2)c2ccc(N3CCCC3=O)cc2n1Cc1ccccc1` [Compound 128, 1-Benzyl-N-(3,4-difluorobenzyl)-2-isopropyl-6-(2-oxopyrrolidin-1-yl)-1H-indole-3-carboxamide], the IC50 under setting [1] was 502 nM. Besides, the “S1P3 (% inh)” value under setting [2] is given as 99%.

In the case of `CC(C)c1c(C(=O)NCc2ccc(F)c(F)c2)c2ccc(NC3CCCC3)cc2n1Cc1ccccc1` [Compound 130, 1-Benzyl-6-(cyclopentylamino)-N-(3,4-difluorobenzyl)-2-isopropyl-1H-indole-3-carboxamide], under setting [1], the IC50 is 44 nM. Also, the “S1P3 (% inh)” value under setting [2] was determined as 99%.

For `CC(C)c1c(C(=O)NCc2ccc(F)c(F)c2)c2ccc(OCc3ncco3)cc2n1Cc1ccccc1` [Compound 131, 1-Benzyl-N-(3,4-difluorobenzyl)-2-isopropyl-6-(1,3-oxazol-2-ylmethoxy)-1H-indole-3-carboxamide], the IC50 under setting [1] is 890 nM. For the same molecule, the “S1P3 (% inh)” value under setting [2] is reported as 96%.

As to `CC(C)c1c(C(=O)NCc2ccc(F)c(F)c2)c2ccc(OC3CCOCC3)cc2n1Cc1ccccc1` [Compound 133, 1-Benzyl-N-(3,4-difluorobenzyl)-2-isopropyl-6-(tetrahydro-2H-pyran-4-yloxy)-1H-indole-3-carboxamide], the “S1P3 (% inh)” value is 36 nM (99) % and the half-inhibitory concentration (IC50) worked out at 36 nM.

As for `CC(C)c1c(C(=O)NCc2ccc(C(F)(F)F)nc2)c2ccc(OC3CCCC3)cc2n1Cc1ccccn1` [Compound 142, 6-(Cyclopentyloxy)-2-isopropyl-1-(pyridin-2-ylmethyl)-N-((6-(trifluoromethyl)pyridin-3-yl)methyl)-1H-indole-3-carboxamide], the IC50 under setting [1] came out at 48 nM. For the same molecule, the “S1P3 (% inh)” value under setting [2] worked out at 99%.

On to `CC(C)c1c(C(=O)NCc2ccc(F)c(F)c2)c2ccc(OC3CCOCC3)cc2n1Cc1ccccn1` [Compound 143, N-(3,4-Difluorobenzyl)-2-isopropyl-1-(pyridin-2-ylmethyl)-6-(tetrahydro-2H-pyran-4-yloxy)-1H-indole-3-carboxamide], for which the IC50 under setting [1] came out at 36 nM. Also, the “S1P3 (% inh)” value under setting [2] worked out at 99%.

For `CC(C)c1c(C(=O)NCc2cncc(F)c2)c2ccc(OC3CCCC3)cc2n1Cc1ccccn1` [Compound 148, 6-(Cyclopentyloxy)-N-((5-fluoropyridin-3-yl)methyl)-2-isopropyl-1-(pyridin-2-ylmethyl)-1H-indole-3-carboxamide], the “S1P3 (% inh)” value was 13 nM (100) % and the IC50 is 13 nM.

As to `CC(C)COc1ccc2c(C(=O)NCc3cncc(F)c3)c(C(C)C)n(Cc3ccccn3)c2c1` [Compound 149, N-((5-Fluoropyridin-3-yl)methyl)-6-isobutoxy-2-isopropyl-1-(pyridin-2-ylmethyl)-1H-indole-3-carboxamide], the IC50 under setting [1] is 29 nM. In addition, the “S1P3 (% inh)” value under setting [2] was found to be 100%.

For `CC(C)c1c(C(=O)NCc2ccc(F)c(F)c2)c2ccc(Oc3nccs3)cc2n1Cc1ccccn1` [Compound 150, N-(3,4-Difluorobenzyl)-2-isopropyl-1-(pyridin-2-ylmethyl)-6-(thiazol-2-yloxy)-1H-indole-3-carboxamide], the IC50 under setting [1] was 5 nM. Under setting [2], the “S1P3 (% inh)” value was found to be 100%.

For the molecule `CC(C)c1c(C(=O)NCc2ccc(F)c(F)c2)c2ccc(O)cc2n1Cc1cccnc1` [Compound 151, N-(3,4-Difluorobenzyl)-6-hydroxy-2-isopropyl-1-(pyridin-3-ylmethyl)-1H-indole-3-carboxamide], the “S1P3 (% inh)” value is on record as 65 nM (98) % and the IC50 is 65 nM.

Regarding `CC(C)c1c(C(=O)NCc2ccc(F)c(F)c2)c2ccc(Oc3nccs3)cc2n1Cc1cccnc1` [Compound 152, N-(3,4-Difluorobenzyl)-2-isopropyl-1-(pyridin-3-ylmethyl)-6-(thiazol-2-yloxy)-1H-indole-3-carboxamide], the IC50 under setting [1] worked out at 17 nM. Also, under setting [2], the “S1P3 (% inh)” value is reported as 97%.

Turning to `CC(C)c1c(C(=O)NCc2ccc(F)c(F)c2)c2ccc(OC3CCCC3)cc2n1Cc1cccnc1` [Compound 153, 6-(Cyclopentyloxy)-N-(3,4-difluorobenzyl)-2-isopropyl-1-(pyridin-3-ylmethyl)-1H-indole-3-carboxamide], the “S1P3 (% inh)” value is on record as 5 nM (99) % and the IC50 worked out at 5 nM.

For the molecule `CC(C)Oc1ccc2c(C(=O)NCc3ccc(F)c(F)c3)c(C(C)C)n(Cc3cccnc3)c2c1` [Compound 154, N-(3,4-Difluorobenzyl)-6-isopropoxy-2-isopropyl-1-(pyridin-3-ylmethyl)-1H-indole-3-carboxamide], under setting [1], the IC50 amounted to 15 nM. Also, the “S1P3 (% inh)” value under setting [2] stood at 100%.

Turning to `CC(C)Cn1c(C(C)C)c(C(=O)NCc2ccc(F)c(F)c2)c2ccc(OC3CCCC3)cc21` [Compound 159, 6-(Cyclopentyloxy)-N-(3,4-difluorobenzyl)-1-isobutyl-2-isopropyl-1H-indole-3-carboxamide], the IC50 under setting [1] is 41 nM. Moreover, under setting [2], the “S1P3 (% inh)” value was determined as 96%.

Consider `CC(C)c1c(C(=O)NCc2cncc(F)c2)c2ccc(OC3CCCC3)cc2n1Cc1cccnc1` [Compound 163, 6-(Cyclopentyloxy)-N-((5-fluoropyridin-3-yl)methyl)-2-isopropyl-1-(pyridin-3-ylmethyl)-1H-indole-3-carboxamide], for which the IC50 under setting [1] was found to be 55 nM. The “S1P3 (% inh)” value under setting [2] is 100%.

As for `CC(C)c1c(C(=O)NCc2ccc(F)c(F)c2)c2ccc(OC3CCC3)cc2n1Cc1cccnc1` [Compound 165, 6-Cyclobutoxy-N-(3,4-difluorobenzyl)-2-isopropyl-1-(pyridin-3-ylmethyl)-1H-indole-3-carboxamide], the IC50 under setting [1] amounted to 7 nM. Also, under setting [2], the “S1P3 (% inh)” value is 100%.

On to `CC(C)Oc1ccc2c(C(=O)NCc3ccc(F)c(F)c3)c(CN3CCCC3)n(Cc3ccccn3)c2c1` [Compound 175, N-(3,4-Difluorobenzyl)-6-isopropoxy-1-(pyridin-2-ylmethyl)-2-(pyrrolidin-1-ylmethyl)-1H-indole-3-carboxamide], for which the IC50 under setting [1] is 1100 nM. Under setting [2], the “S1P3 (% inh)” value stood at 100%.

As to `CC(C)Oc1ccc2c(C(=O)NCc3ccc(F)c(F)c3)c(C[N+]3(C)CCCC3)n(Cc3ccccn3)c2c1.[I-]` [Compound 176, 1-((3-(3,4-Difluorobenzylcarbamoyl)-6-isopropoxy-1-(pyridin-2-ylmethyl)-1H-indol-2-yl)methyl)-1-methylpyrrolidinium iodide], under setting [1], the IC50 was 7600 nM. For the same molecule, the “S1P3 (% inh)” value under setting [2] amounted to 98%.

For the molecule `CC(C)c1c(C(=O)NCc2ccc(F)c(F)c2)c2ccc(NC3CCCC3)cc2n1Cc1ccccn1` [Compound 183, 6-(Cyclopentylamino)-N-(3,4-difluorobenzyl)-2-isopropyl-1-(pyridin-2-ylmethyl)-1H-indole-3-carboxamide], the IC50 under setting [1] stood at 152 nM. For the same molecule, the “S1P3 (% inh)” value under setting [2] was 100%.

For the molecule `CC(C)c1c(C(=O)NCc2ccc(F)c(F)c2)c2ccc(NC3=NCCS3)cc2n1Cc1ccccn1` [Compound 184, N-(3,4-Difluorobenzyl)-6-(4,5-dihydrothiazol-2-ylamino)-2-isopropyl-1-(pyridin-2-ylmethyl)-1H-indole-3-carboxamide], the IC50 under setting [1] was greater than 8300 nM. Besides, under setting [2], the “S1P3 (% inh)” value came to 80%.

With `CC(C)c1c(C(=O)NCc2ccc(F)c(F)c2)c2ccc(N(C)C3CCCC3)cc2n1Cc1ccccc1` [Compound 189, 1-Benzyl-6-(cyclopentyl(methyl)amino)-N-(3,4-difluorobenzyl)-2-isopropyl-1H-indole-3-carboxamide], the IC50 under setting [1] was determined as 87 nM. For the same molecule, the “S1P3 (% inh)” value under setting [2] worked out at 100%.

With `CC(C)c1c(C(=O)NCc2ccc(F)c(F)c2)c2ccc(NC3CCC3)cc2n1Cc1ccccc1` [Compound 190, 1-Benzyl-6-(cyclobutylamino)-N-(3,4-difluorobenzyl)-2-isopropyl-1H-indole-3-carboxamide], the “S1P3 (% inh)” value is 13 nM (100) % and the IC50 is 13 nM.

Regarding `CC(C)c1c(C(=O)NCc2cc(F)cc(F)c2)c2ccc(NC3CCCC3)cc2n1Cc1ccccc1` [Compound 191, 1-Benzyl-6-(cyclopentylamino)-N-(3,5-difluorobenzyl)-2-isopropyl-1H-indole-3-carboxamide], the IC50 under setting [1] came to 38 nM. In addition, the “S1P3 (% inh)” value under setting [2] amounted to 99%.
